Tested on: Sprague-Dawley rats
Assay: Hematology
Type: in vivo, Rattus norvegicus
Set-up: key to Dose response, MCH / Dose response, MCHC / Dose response, PLT / Dose response, MCV: D: significant dose response (for results, see Table 2); T: significant trend; HCT, Hematocrit: unit not given here
Conditions: for RBC, Red cell count / HCT, Hematocrit / Basophils / Eosinophils / HB, Hemoglobin / Lymphocytes / MCH, Mean corpuscular hemoglobin / MCHC, Mean corpuscular hemoglobin concentration / MCV, Mean corpuscular volume / MPV, Mean platelet volume / Monocytes / Neutrophils / PDW, Platelet distribution width / PLT, Platelet count / WBC, Leukocyte total count: group mean; for Hematocrit, CED / Hematocrit, CED-L / Hemoglobin, CED / Hemoglobin, CED-L / Red blood cell count, CED / Red blood cell count, CED-L / Red cell distribution width - SD, CED / Red cell distribution width - SD, CED-L: total dose based
Method: Basic blood picture analysis was carried out using Advia 120 analyzer (Bayer, later Siemens Diagnostic Division, Dublin, Ireland). This analysis includes red cell count (RBC), hemoglobin (HB), hematocrit (HCT), platelet count (PLT), leukocyte total count (WBC) and differential count as well as the calculated red cell and platelet parameters mean corpuscular volume (MCV), mean corpuscular hemoglobin (MCH), mean corpuscular hemoglobin concentration (MCHC), red cell distribution width - standard deviation (RDW-SD), platelet distribution width (PDW) and mean platelet volume (MPV). Blood cell counting is based on isovolumetric sphering and fixing the cells, stains and light scattering. Visual leukocyte differential counting was done after May-Grünwald-Giemsa staining.
Data were also analyzed using the BMD method, which is based on dose-response modeling of the full data set using a nested family of exponential and Hill models. The analyses were done on data of males and females combined, using sex as a covariate. […] In that case, different Critical Effect Doses (CEDs) and CEDs at the lowest bound of the confidence interval (CED-L) were generated for each sex. If no difference between sexes is detected, a CED and CED-Ls for the combined data is generated. However, this was also done if the curve fits are close, and separate analyses for males and females were then performed manually. CEDs and CED-Ls were calculated at the predefined Critical Effect Size (CES) of 5% (EFSA standard) or 10%.

[1] = females, total doses 0-1700 mg/kg bw
[2] = males, total dose 3 mg/kg bw, N=5
[3] = males, total dose 10 mg/kg bw, N=5
[4] = males, total dose 30 mg/kg bw, N=5
[5] = males, total dose 100 mg/kg bw, N=5

For `Clc1cc(Cl)c(-c2cc(Cl)c(Cl)c(Cl)c2Cl)cc1Cl` [PCB 180, 2,2′,3′,4,4′,5,5′-heptachlorobiphenyl], the “RBC, Red cell count” value (females, total dose 1700 mg/kg bw, N=5, p<0.001 vs. control) was 6.43e+12 L⁻¹, the “HCT, Hematocrit” value (females, total dose 1700 mg/kg bw, N=5, p<0.01 vs. control) was 0.41 and the “Dose response, HB” value [1] was “D, T”. For the same compound, the “Dose response, HCT” value [1] was “D, T”, the “Dose response, MCV” value [1] was “T” and the “Dose response, RBC” value [1] was “D, T”. The “Hematocrit, CED” value (females, CES 5%) was 832 mg/kg bw, the “Hematocrit, CED-L” value (females, CES 5%) was 646 mg/kg bw and the “Hemoglobin, CED” value (females, CES 5%) was 739 mg/kg bw. For the same compound, the “Hemoglobin, CED-L” value (females, CES 5%) was 600 mg/kg bw, the “Red blood cell count, CED” value (females, CES 5%) was 638 mg/kg bw and the “Red blood cell count, CED-L” value (females, CES 5%) was 514 mg/kg bw. For the same compound, the “Red cell distribution width - SD, CED” value (females, CES 5%) was 1400 mg/kg bw, the “Red cell distribution width - SD, CED-L” value (females, CES 5%) was 1093 mg/kg bw and the “Hematocrit, CED” value (females, CES 10%) was 1710 mg/kg bw. The “Hematocrit, CED-L” value (females, CES 10%) was 1327 mg/kg bw, the “Hemoglobin, CED” value (females, CES 10%) was 1520 mg/kg bw and the “Hemoglobin, CED-L” value (females, CES 10%) was 1233 mg/kg bw. For the same compound, the “Red blood cell count, CED” value (females, CES 10%) was 1310 mg/kg bw, the “Red blood cell count, CED-L” value (females, CES 10%) was 1056 mg/kg bw and the “Red cell distribution width - SD, CED” value (females, CES 10%) was 1650 mg/kg bw. For the same compound, the “Red cell distribution width - SD, CED-L” value (females, CES 10%) was 1498 mg/kg bw, the “RBC, CED” value (females, adipose tissue concentration based) was 4170 µg/g lipid and the Basophils [2] was 0.0%. The Eosinophils [2] was 0.6%, the “HB, Hemoglobin” value [2] was 179 g/L and the “HCT, Hematocrit” value [2] was 0.52. For the same compound, the Lymphocytes [2] was 87%, the “MCH, Mean corpuscular hemoglobin” value [2] was 21.9 pg and the “MCHC, Mean corpuscular hemoglobin concentration” value [2] was 346 g/L. The “MCV, Mean corpuscular volume” value [2] was 63.4 fL, the “MPV, Mean platelet volume” value [2] was 7.16 fL and the Monocytes [2] was 4.4%. For the same compound, the Neutrophils [2] was 8.0%, the “PDW, Platelet distribution width” value [2] was 7.66 fL and the “PLT, Platelet count” value [2] was 8.36e+11 L⁻¹. The “RBC, Red cell count” value [2] was 8.18e+12 L⁻¹, the “WBC, Leukocyte total count” value [2] was 1.896e+10 L⁻¹ and the Basophils [3] was 0.2%. The Eosinophils [3] was 0.6%, the “HB, Hemoglobin” value [3] was 171 g/L and the “HCT, Hematocrit” value [3] was 0.49. For the same compound, the Lymphocytes [3] was 84.6%, the “MCH, Mean corpuscular hemoglobin” value [3] was 22.02 pg and the “MCHC, Mean corpuscular hemoglobin concentration” value [3] was 350 g/L. The “MCV, Mean corpuscular volume” value [3] was 63.0 fL, the “MPV, Mean platelet volume” value [3] was 6.96 fL and the Monocytes [3] was 4.4%. The Neutrophils [3] was 10.2%, the “PDW, Platelet distribution width” value [3] was 7.54 fL and the “PLT, Platelet count” value [3] was 8.27e+11 L⁻¹. For the same compound, the “RBC, Red cell count” value [3] was 7.79e+12 L⁻¹, the “WBC, Leukocyte total count” value [3] was 1.674e+10 L⁻¹ and the Basophils [4] was 0.0%. For the same compound, the Eosinophils [4] was 0.6%, the “HB, Hemoglobin” value [4] was 170 g/L and the “HCT, Hematocrit” value [4] was 0.49. The Lymphocytes [4] was 87.8%, the “MCH, Mean corpuscular hemoglobin” value [4] was 22 pg and the “MCHC, Mean corpuscular hemoglobin concentration” value [4] was 349 g/L. For the same compound, the “MCV, Mean corpuscular volume” value [4] was 63.1 fL, the “MPV, Mean platelet volume” value [4] was 6.92 fL and the Monocytes [4] was 4.2%. The Neutrophils [4] was 7.4%, the “PDW, Platelet distribution width” value [4] was 7.44 fL and the “PLT, Platelet count” value [4] was 8.6e+11 L⁻¹. The “RBC, Red cell count” value [4] was 7.73e+12 L⁻¹, the “WBC, Leukocyte total count” value [4] was 1.7e+10 L⁻¹ and the Basophils [5] was 0.0%. The Eosinophils [5] was 0.6%, the “HB, Hemoglobin” value [5] was 170 g/L and the “HCT, Hematocrit” value [5] was 0.48. For the same compound, the Lymphocytes [5] was 87.8%.
